Assay results reported in ChEMBL document CHEMBL6120974, “Hydrazide-Based Class I Selective HDAC Inhibitors Completely Reverse Chemoresistance Synergistically in Platinum-Resistant Solid Cancer Cells” (J Med Chem, 2024).
Active and inactive are the calls of the source. The rule behind the calls is not given here.

Columns and labels:
[1] = test system: CAL-27; experiment: Downregulation of survivin expression in human CAL-27 cells at 0.316 uM in presence of cisplatin at 3 uM preincubated with compound for 48 hrs prior to addition of cisplatin and measured after 24 hrs by Immunoblotting analysis; format: functional, cell-based; conditions: time 72.0 hrs
[2] = test system: CAL-27; experiment: Induction of apoptosis in human CAL-27 cells assessed as increase in caspase 3/7 activation at 0.316 uM in presence of cisplatin preincubated with compound for 48 hrs co-treated with cisplatin and measured after 24 hrs by capase3/7 green dye based analysis; format: functional, cell-based; conditions: time 72.0 hrs
[3] = test system: A2780cisR; experiment: Downregulation of BAX expression in cisplatin resistant human A2780 cisR cells at 2 uM incubated for 48 hrs by Immunoblotting analysis; format: functional, cell-based
[4] = test system: Cal27CisR; experiment: Induction of apoptosis in cisplatin resistant human Cal27CisR cells assessed as increase in apoptotic nuclei at sub-G1 phase at 0.316 uM in presence of cisplatin at 3 uM preincubated with compound for 48 hrs prior to addition of cisplatin and measured after 24 hrs by flow cytometric analysis; format: functional, cell-based; conditions: time 72.0 hrs
[5] = test system: Cal27CisR; experiment: Induction of apoptosis in human Cal27CisR cells assessed as increase in BIM expression at 0.316 uM incubated for 48 hrs by Immunoblotting analysis; format: functional, cell-based
[6] = test system: A2780; experiment: Induction of apoptosis in human A2780 cells assessed as caspase-3/7 activation at 2 uM incubated for 48 hrs by capase3/7 green dye based analysis; format: functional, cell-based
[7] = cells; conditions: Homo sapiens, A2780
Description: Inhibition of class I/6 HDAC (unknown origin) in human A2780 cells using Boc-Lys(epsilon-Ac)-AMC as substrate preincubated with compound for 18 hrs followed by substrate addition and measured after 3 hrs by NOVOstar microplate reader analysis

[8] = test system: A2780cisR; experiment: Induction of apoptosis in cisplatin resistant human A2780 cisR cells assessed as caspase-3/7 activation at 2 uM incubated for 48 hrs by capase3/7 green dye based analysis; format: functional, cell-based
[9] = cells; conditions: Homo sapiens, CAL-27
Description: Inhibition of class I/6 HDAC (unknown origin) in human CAL-27 cells using Boc-Lys(epsilon-Ac)-AMC as substrate preincubated with compound for 18 hrs followed by substrate addition and measured after 3 hrs by NOVOstar microplate reader analysis

[10] = test system: A2780cisR; experiment: Induction of cell cycle arrest in cisplatin resistant human A2780 cells assessed as increase in p21 expression at 2 uM incubated for 48 hrs by Western blotting analysis; format: functional, cell-based
[11] = test system: Cal27CisR; experiment: Induction of apoptosis in cisplatin resistant human Cal27CisR cells assessed as increase in caspase 3/7 activation at 0.316 uM in presence of cisplatin preincubated with compound for 48 hrs co-treated with cisplatin and measured after 24 hrs by capase3/7 green dye based analysis; format: functional, cell-based; conditions: time 72.0 hrs
[12] = test system: A2780cisR; experiment: Induction of DNA damage in cisplatin resistant human A2780 cisR cells assessed as increase in gammaH2AX formation at 2 uM in presence of cisplatin at 16 uM pretreated with compound for 48 hrs prior to addition of cisplatin and measured after 24 hrs by Hoechst 33342 staining based Immunofluorescence analysis; format: functional, cell-based; conditions: time 72.0 hrs
[13] = test system: A2780cisR; experiment: Downregulation of survivin expression in cisplatin resistant human A2780 cisR cells at 2 uM incubated for 48 hrs by Immunoblotting analysis; format: functional, cell-based
[14] = molecular target: T1, Protein deacetylase HDAC6 (Homo sapiens, UniProt Q9UBN7); experiment: Inhibition of N-terminal GST-tagged full length recombinant human HDAC6 (1 to 1215 end residues) expressed in sf9 cells using ZMAL (Z-Lys(Ac)-AMC as fluorogenic substrate preincubated with compound for 60 mins followed by substrate addition and measured after 90 mins by fluorescence based microplate reader analysis
T1 sequence (Q9UBN7 whole entry): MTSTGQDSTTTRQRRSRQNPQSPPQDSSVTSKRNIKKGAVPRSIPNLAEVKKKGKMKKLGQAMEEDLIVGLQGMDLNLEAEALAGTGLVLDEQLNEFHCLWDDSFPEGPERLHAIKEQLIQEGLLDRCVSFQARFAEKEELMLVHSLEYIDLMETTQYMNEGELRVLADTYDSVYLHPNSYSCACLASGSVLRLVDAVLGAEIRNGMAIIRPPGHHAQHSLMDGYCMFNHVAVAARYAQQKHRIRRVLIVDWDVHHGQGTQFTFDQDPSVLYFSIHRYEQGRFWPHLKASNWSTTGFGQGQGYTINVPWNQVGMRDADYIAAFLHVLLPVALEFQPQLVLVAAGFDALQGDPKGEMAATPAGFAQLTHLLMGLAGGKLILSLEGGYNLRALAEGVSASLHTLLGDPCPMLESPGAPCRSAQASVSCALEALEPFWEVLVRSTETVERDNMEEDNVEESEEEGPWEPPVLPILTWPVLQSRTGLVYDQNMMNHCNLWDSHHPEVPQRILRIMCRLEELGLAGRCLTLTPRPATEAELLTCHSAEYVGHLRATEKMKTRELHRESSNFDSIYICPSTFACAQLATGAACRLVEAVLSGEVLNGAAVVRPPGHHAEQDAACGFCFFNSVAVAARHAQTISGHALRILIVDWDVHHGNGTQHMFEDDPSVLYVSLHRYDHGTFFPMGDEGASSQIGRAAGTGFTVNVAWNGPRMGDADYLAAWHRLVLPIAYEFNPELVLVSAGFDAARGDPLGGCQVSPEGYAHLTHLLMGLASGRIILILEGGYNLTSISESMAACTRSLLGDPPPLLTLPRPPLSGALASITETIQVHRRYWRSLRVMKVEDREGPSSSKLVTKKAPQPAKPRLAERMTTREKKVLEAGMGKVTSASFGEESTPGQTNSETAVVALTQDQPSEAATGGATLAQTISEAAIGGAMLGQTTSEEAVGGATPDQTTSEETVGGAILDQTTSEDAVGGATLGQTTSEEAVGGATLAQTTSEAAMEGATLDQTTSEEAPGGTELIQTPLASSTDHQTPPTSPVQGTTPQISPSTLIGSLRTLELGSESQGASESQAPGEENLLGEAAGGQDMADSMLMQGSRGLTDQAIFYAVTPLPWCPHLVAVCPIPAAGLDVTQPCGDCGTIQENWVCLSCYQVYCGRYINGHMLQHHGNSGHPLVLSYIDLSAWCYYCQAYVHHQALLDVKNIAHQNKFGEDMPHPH

[15] = test system: Cal27CisR; experiment: Downregulation of survivin expression in cisplatin resistant human Cal27CisR cells at 0.316 uM incubated for 48 hrs by Immunoblotting analysis; format: functional, cell-based
[16] = Cytotoxicity against human HEK293 cells assessed as reduction in cell viability incubated for 72 hrs by MTT assay; format: toxicity, cell-based
[17] = test system: A2780cisR; experiment: Induction of apoptosis in cisplatin resistant human A2780 cisR cells assessed as decrease in Bcl-2 protein level at 2 uM incubated for 48 hrs by Immunoblotting analysis; format: functional, cell-based
[18] = test system: CAL-27; experiment: Induction of apoptosis in human CAL-27 cells assessed as increase in Bcl-2 protein level at 0.316 uM incubated for 48 hrs by Immunoblotting analysis; format: functional, cell-based
[19] = test system: Cal27CisR; experiment: Downregulation of survivin expression in cisplatin resistant human Cal27CisR cells at 0.316 uM in presence of cisplatin at 16.5 uM preincubated with compound for 48 hrs prior to addition of cisplatin and measured after 24 hrs by Immunoblotting analysis; format: functional, cell-based; conditions: time 72.0 hrs
[20] = cells; conditions: Homo sapiens, CAL-27; remark: listed apart in the source
Description: Inhibition of class IIa/8 HDAC (unknown origin) in human CAL-27 cells using Boc-Lys(TFA)-AMC as substrate preincubated with compound for 18 hrs followed by substrate addition and measured after 3 hrs by NOVOstar microplate reader analysis

[21] = test system: A2780cisR; experiment: cells; conditions: Homo sapiens, 72 h
[22] = test system: HL-60; experiment: cells; conditions: Homo sapiens, HL-60, 72 h
Description: Cytotoxicity against human HL-60 cells harboring p53 null assessed as cell viability incubated for 72 hrs by MTT assay

[23] = test system: CAL-27; experiment: Downregulation of survivin expression in human CAL-27 cells at 0.316 uM incubated for 48 hrs by Immunoblotting analysis; format: functional, cell-based
[24] = test system: A2780cisR; experiment: Effect on survivin expression in human cisplatin resistant human A2780 cisR cells at 2 uM incubated for 48 hrs by Immunoblotting analysis; format: functional, cell-based
[25] = cells; conditions: Homo sapiens, A2780cisR
Description: Inhibition of class IIa/8 HDAC (unknown origin) in cisplatin resistant human A2780 cisR cells using Boc-Lys(TFA)-AMC as substrate preincubated with compound for 18 hrs followed by substrate addition and measured after 3 hrs by NOVOstar microplate reader analysis

CCCCNNC(=O)c1ccc(CN(CC(=O)NCc2ccccc2)C(=O)c2ccc(N(C)C)cc2)cc1
Activity [1]: Active
Activity [2]: Active
Activity [3]: Active
Activity [4]: Active
Activity [5]: Active
Activity [6]: Active; Remarkable Activation Observed
IC50 [7]: 263 nM
Activity [8]: Active; Remarkable Activation Observed
IC50 [9]: 166 nM
Activity [10]: Active
Activity [11]: Active
Activity [12]: inactive
Activity [13]: Active
IC50 [14]: > 3330 nM
Activity [15]: Active
IC50 at 72 h [16]: 1090 nM
Activity [17]: Active
Activity [18]: Not active; Slight Increase Observed
Activity [19]: Active
IC50 [20]: 1020 nM
IC50 [21]: 2690 nM
IC50 [22]: 474 nM
Activity [23]: Active
Activity [24]: inactive
IC50 [25]: 11000 nM

CCCNNC(=O)c1ccc(CN(CC(=O)NCc2ccccc2)C(=O)c2ccc(N(C)C)cc2)cc1
Activity [1]: Active
Activity [2]: Active
Activity [3]: Active
Activity [4]: Active
Activity [5]: Active
Activity [6]: Active; Remarkable Activation Observed
IC50 [7]: 235 nM
Activity [8]: Active; Remarkable Activation Observed
IC50 [9]: 151 nM
Activity [10]: Active
Activity [11]: Active
Activity [12]: inactive
Activity [13]: Active
IC50 [14]: > 10000 nM
Activity [15]: Active
IC50 at 72 h [16]: 1160 nM
Activity [17]: Active
Activity [18]: Not active; Slight Increase Observed
Activity [19]: Active
IC50 [20]: 1020 nM
IC50 [21]: 2460 nM
IC50 [22]: 431 nM
Activity [23]: Active
Activity [24]: inactive
IC50 [25]: 12500 nM
